Experiment in all cases: NCI-60 cell line screen, 48 h
Assay [1] deals with CAKI-1 renal.
Assay [2] relates to COLO 205 colon.
Assay [3] relates to HOP-62 NSCLC.
Assay [4] has as its system MDA-MB-231 breast.
In assay [5] the test system is OVCAR-4 ovarian.
For assay [6], the system named is RPMI-8226 leukemia.
For assay [7], the system named is RXF 393 renal.
Assay [8] has as its system SK-MEL-28 melanoma.
Assay [9] deals with SNB-19 CNS.
The subject of assay [10] is SW-620 colon.

Experimental findings from PubChem BioAssay (NCI) are described below.

Structures are written as SMILES.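 Five compound concentrations were applied to cells in 96-well plates for 48 hours; endpoints were derived by simple linear interpolation of the resulting dose-response curve. GI50 = concentration required for 50% inhibition of growth. At the TGI there is no net growth.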

On to `CCC[CH2][Pb]([Cl])([CH2]CCC)[CH2]CCC`, for which the GI50 was 0.0673 µM in [1]; 0.0194 µM in [2]; 0.128 µM in [3]; 0.0328 µM in assay [4]; 0.0472 µM in assay [5]; 0.0157 µM in assay [6]. Also, the GI50 in [7] is 0.0231 µM; in assay [8], 0.0276 µM; in [9], 0.188 µM; in assay [10] it was 0.0185 µM. The TGI in assay [1] is 0.199 µM; in [2] it was 0.0358 µM; in assay [3], 0.258 µM; in [4], 0.122 µM; in assay [5] it was 0.184 µM; in assay [6] it was 0.0531 µM. Moreover, the TGI in assay [7] was determined as 0.0635 µM; in assay [8] it was 0.0792 µM; in assay [9], 0.33 µM; in assay [10], 0.0345 µM.

On to `COC(=O)[C@]12CC[C@@H](C)[C@H](C)[C@@H]1C1=CC[C@@H]3[C@@]4(C)C(C=O)=C[C@@](C)(COC(=O)/C=C/c5ccccc5)[C@@H]4[C@H](O)C[C@@]3(C)[C@]1(C)CC2`, for which the GI50 in assay [1] is 3.56 µM; in [2] it was 2.3 µM; in [3], 9.4 µM; in [4] it was 4.36 µM; in [5], 3.16 µM; in [6], 1.59 µM. The GI50 in assay [7] was 1.79 µM; in assay [8], 2.7 µM; in assay [9], 6.47 µM; in [10] it was 3.68 µM. Further, the TGI in assay [1] was more than 100 µM; in assay [2], 5.33 µM; in [3] it was 32.1 µM; in assay [4] it was 27.2 µM; in [5] it was more than 100 µM; in assay [6] it was 5.73 µM. For the same molecule, the TGI in assay [7] is 4.45 µM; in assay [8] it was 7.63 µM; in assay [9] it was more than 100 µM; in [10], 18.8 µM.

For the molecule `COc1cc2c(cc1C)NC(=O)/C2=C\c1c[nH]c2ccccc12`, the GI50 in assay [1] was 10.6 µM; in [2] it was 16.6 µM; in assay [3] it was 17.9 µM; in assay [4], 4.3 µM; in assay [5], 12.3 µM; in assay [6], 5.95 µM. Moreover, the GI50 was 7.82 µM in assay [7], 21.7 µM in assay [8], 16.4 µM in assay [9] and 20.3 µM in assay [10]. In addition, the TGI in assay [1] was 32.3 µM; in assay [2] it was more than 100 µM; in assay [3], 56.8 µM; in assay [4] it was 21.5 µM; in assay [5], 40.5 µM; in assay [6], 63 µM. In addition, the TGI is 47.6 µM in assay [7], 69.5 µM in assay [8], 41.7 µM in [9] and 53.3 µM in assay [10].

For the molecule `Fc1ccc(Nc2nc3ccccc3c3occc23)cc1`, the GI50 in assay [1] is 1.89 µM; in [2] it was 3.3 µM; in assay [3], 2.31 µM; in assay [4] it was 1.07 µM; in [5], 6 µM; in assay [6], 3.56 µM. Also, the GI50 in [7] was 12.6 µM; in assay [8] it was 2.45 µM; in assay [9], 7.96 µM; in assay [10] it was 17 µM. In addition, the TGI stood at 5.24 µM in assay [1]; 12.9 µM in [2]; 13.8 µM in assay [3]; 19.9 µM in [4]; 25.5 µM in [5]; 15 µM in assay [6]. Moreover, the TGI in [7] worked out at 31.5 µM; in assay [8], 16.6 µM; in assay [9], 24.1 µM; in assay [10] it was 30.7 µM.

Take `Nc1ncnc2c1ccn2[C@@H]1O[C@H]([C@H](O)c2ccc(Cl)c(F)c2)[C@@H](O)[C@H]1O`: the GI50 in assay [1], in assay [2], in assay [3], in assay [4], in [5] and in [6] was more than 100 µM each time. For the same molecule, the GI50 in [7] was 66.5 µM; in assay [8], more than 100 µM; in [9] it was more than 100 µM; in assay [10], more than 100 µM. Further, the TGI in assay [1], in assay [2], in assay [3], in assay [4], in assay [5] and in [6] was more than 100 µM throughout. Moreover, the TGI in assay [7], in assay [8], in assay [9] and in assay [10] was more than 100 µM in each case.

Regarding `CCn1ccc(NS(=O)(=O)c2ccc(N)cc2)nc1=O`, the GI50 in [1], in assay [2], in assay [3], in assay [4], in [5] and in [6] was more than 100 µM in each case. The GI50 in [7], in [8], in assay [9] and in assay [10] was more than 100 µM each time. Also, the TGI in assay [1], in assay [2], in assay [3], in assay [4], in [5] and in [6] was more than 100 µM throughout. Further, the TGI in assay [7], in assay [8], in assay [9] and in [10] was more than 100 µM throughout.

For `C[C@@H](Oc1cc(-n2cnc3ccc(OC[C@@H](O)CO)cc32)sc1C(N)=O)c1ccccc1Cl`, the GI50 was 12.2 µM in [1]; 0.0743 µM in assay [2]; 0.11 µM in assay [3]; 0.416 µM in assay [4]; 4.15 µM in [5]; 1.53 µM in [6]. For the same molecule, the GI50 in assay [7] is 0.0653 µM; in [8], 0.229 µM; in [9] it was 0.339 µM; in assay [10], 0.0633 µM. The TGI in [1], in [2], in [3], in assay [4], in [5] and in assay [6] was more than 25 µM in each case. Moreover, the TGI in assay [7] is 2.08 µM; in assay [8], more than 25 µM; in assay [9] it was more than 25 µM; in assay [10], more than 25 µM.

Regarding `O=C1C=CC2(C=C1)C[C@H](NC(=O)OCc1ccccc1)C(=O)O2`, the TGI in [1] was 34.8 µM; in assay [2] it was 18.3 µM; in [3], more than 69.2 µM; in assay [4] it was 32.6 µM; in [5], 39.6 µM; in [6] it was 17.2 µM. For the same molecule, the TGI in [7] was 24.9 µM; in assay [8], 27 µM; in assay [9], more than 100 µM; in assay [10] it was 18.2 µM.
